Source: patent US6204293A, “Inhibitors of protein isoprenyl transferases” (University of Pittsburgh, priority 1998, dated 2001)
Structures can show the parent of a compound that is named as a salt. Where two headings read alike, the source gives them in different places. One block for each compound: values may come before it.

Biological target: T1, Rat brain protein farnesyltransferase (Rattus norvegicus, UniProt Q02293+Q04631)
T1 construct: Rat brain protein farnesyltransferase activity is measured; from tissue; host or cells: rat brain
T1 sequence (Q02293 whole entry, one chain of several): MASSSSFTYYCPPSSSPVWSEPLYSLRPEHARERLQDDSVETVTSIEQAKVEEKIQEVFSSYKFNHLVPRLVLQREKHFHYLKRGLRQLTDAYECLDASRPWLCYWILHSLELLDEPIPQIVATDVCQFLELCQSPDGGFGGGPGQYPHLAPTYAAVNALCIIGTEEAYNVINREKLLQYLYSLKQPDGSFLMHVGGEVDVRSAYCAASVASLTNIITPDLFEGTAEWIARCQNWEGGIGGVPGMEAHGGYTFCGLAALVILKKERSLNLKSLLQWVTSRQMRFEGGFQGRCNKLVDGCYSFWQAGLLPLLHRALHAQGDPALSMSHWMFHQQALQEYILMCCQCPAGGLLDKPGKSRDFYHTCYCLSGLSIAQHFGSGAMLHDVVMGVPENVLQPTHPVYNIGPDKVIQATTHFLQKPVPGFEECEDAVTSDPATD
Experiment: % inhibition of farnesylation, scintillation proximity assay with biotin-K Ras B fragment
Assay type: biochemical
Settings: for % inhibition at 1 × 10^-5 M: Table 1; for inhibition at 1 µM: read-out: % inhibition at 1 × 10^-6 M
In short: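 Scintillation proximity read-out of farnesylation, using a biotinylated K Ras B fragment (0.1 mM final) in place of biotin-lamin. Enzyme purified from rat brain; results given as % inhibition.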

[1] = read-out: % inhibition at 1 × 10^-7 M
[2] = read-out: % inhibition at 1 × 10^-8 M
[3] = read-out: % inhibition at 1 × 10^-8 M, Table 4, 1 × 10^-8 M

% inhibition at 1 × 10^-7 M (Table 3, 1 × 10^-7 M): 57%
SMILES: CCSC[C@H](CC1CCCCC1)N(Cc1ccc(C(=O)N[C@@H](CCSC)C(=O)O)c(-c2ccccc2C)c1)C(=O)c1ccccc1 [Example 949]

% inhibition at 1 × 10^-5 M: 64%
SMILES: CSCC[C@H](NC(=O)c1ccc(CNc2ccc(Oc3ccccc3)cc2)cc1-c1ccccc1)C(=O)O [Example 701]

% inhibition at 1 × 10^-7 M (Table 3, 1 × 10^-7 M): 86%
SMILES: CSCC[C@H](NC(=O)c1ccc(CCc2ccc(Oc3cccc(Cl)c3)cc2)cc1-c1ccccc1C)C(=O)O [Example 859]

inhibition at 0.01 µM (read-out: % inhibition at 0.01 μM (**), Table 6, ** footnote 0.01 μM (title: 0.01 mM)): 62%
SMILES: COCCOCOC[C@H](CC1CCCCC1)OCc1ccc(C(=O)N[C@@H](CCSC)C(=O)O)c(-c2ccccc2C)c1 [Example 1050, N-[4-(3-cyclohexyl-1-(2-methoxyethoxymethyleneoxy)prop-2-yloxymethyl)-2-(2-methylphenyl)benzoyl]methionine, lithium salt]

% inhibition at 1 × 10^-6 M (Table 2, 1 × 10^-6 M): 89%
SMILES: CSCC[C@H](NC(=O)c1ccc(/C=C/c2ccc(Oc3ccccc3)nn2)cc1-c1ccccc1C)C(=O)O [Example 810]

% inhibition at 1 × 10^-6 M (Table 2, 1 × 10^-6 M): 88%
SMILES: CSCC[C@H](NC(=O)c1ccc(CN(CC(C)C)C(CC2CCCCC2)CC2CCCCC2)cc1-c1ccccc1C)C(=O)O [Example 908]

inhibition at 0.1 µM (read-out: % inhibition at 0.1 μM (*), Table 6, * footnote 0.1 μM (title: 0.1 mM)): 88%
SMILES: CSCC[C@H](NC(=O)c1ccc(COC(CCC2CCCCC2)c2ncnn2C)cc1-c1ccccc1C)C(=O)O (stereo partly shown) [Example 1224, N-[4-(1-(1-Methyl-1,2,4-triaz-5-yl)-3-cyclohexylpropan-1-yloxymethyl)-2-(2-methylphenyl)benzoyl]methionine lithium salt]

% inhibition at 1 × 10^-5 M: 67%
SMILES: CSCC[C@H](NC(=O)c1ccc(CNc2ccc(C)c(C)c2)cc1-c1ccccc1)C(=O)O [Example 704]

% inhibition at 0.01 μM (**) (Table 6, ** footnote 0.01 μM (title: 0.01 mM)): 95%
SMILES: CCSCC(CC1CCCCC1)NCc1cc(-c2ccccc2C)c(C(=O)N[C@@H](CCSC)C(=O)O)cc1F (stereo partly shown) [Example 1134]

% inhibition at 1 × 10^-6 M (Table 2, 1 × 10^-6 M): 69%
SMILES: CSCC[C@H](NC(=O)c1ccc(CN[C@@H](CC2CCCCC2)[C@@H](O)[C@@H](O)CC(C)C)cc1-c1ccccc1)C(=O)O [Example 716]

% inhibition at 1 × 10^-7 M (Table 3, 1 × 10^-7 M): 88%
SMILES: CCSC[C@H](CC(C)C)N(C)Cc1ccc(C(=O)N[C@@H](CCSC)C(=O)O)c(-c2ccccc2C)c1 [Example 906]

% inhibition at 1 × 10^-6 M (Table 2, 1 × 10^-6 M): 88%
SMILES: CSCC[C@H](NC(=O)c1ccc(CN2CCCC(OCc3ccccc3)C2)cc1-c1ccccc1C)C(=O)O (stereo partly shown) [Example 989]

% inhibition at 1 × 10^-8 M (Table 4, 1 × 10^-8 M): 95%
SMILES: CSCC[C@H](NC(=O)c1ccc(CN(Cc2ccccc2)c2cncnc2)cc1-c1ccccc1C)C(=O)O [Example 836]

The remaining lines, values behind:

SMILES: CSCC[C@H](NC(=O)c1ccc(NC(=O)C2CCC(=O)N2)cc1-c1ccccc1)C(=O)O (stereo partly shown) [Example 202]
% inhibition at 1 × 10^-6 M (Table 2, 1 × 10^-6 M): 31%

SMILES: CSCC[C@H](NC(=O)c1ccc(CNc2ccc(-c3ccccc3)cc2)cc1-c1ccccc1)C(=O)O [Example 700]
% inhibition at 1 × 10^-5 M: 68%

SMILES: CSCC[C@H](NC(=O)c1ccc(NCC(CO)Cc2ccccc2)cc1-c1ccccc1C)C(=O)O (stereo partly shown) [Example 476]
% inhibition at 1 × 10^-6 M (Table 2, 1 × 10^-6 M): 91%

SMILES: CSCC[C@H](NC(=O)c1ccc(COCCc2ccc(-c3ccc(Cl)cc3)o2)cc1-c1ccccc1C)C(=O)O [Example 536, N-[4-(5-(4-chlorophenyl)furan-2-ylethoxymethyl)-2-(2-methylphenyl)benzoyl]methionine lithium salt]
inhibition at 0.1 µM [1]: 79%

SMILES: COc1ccc(NCc2ccc(C(=O)N[C@@H](CCSC)C(=O)O)c(-c3ccccc3)c2)cc1 [Example 690]
% inhibition at 1 × 10^-5 M: 61%

SMILES: CSCC[C@H](NC(=O)c1ccc(COC(CCC2CCCCC2)c2ccns2)cc1-c1ccccc1C)C(=O)O (stereo partly shown) [Example 1223, N-[4-(1-(Isothiaz-5-yl)-3-cyclohexylpropan-1-yloxymethyl)-2-(2-methylphenyl)benzoyl]methionine lithium salt]
inhibition at 0.01 µM (read-out: % inhibition at 0.01 μM (**)): 91%

SMILES: CSCC[C@H](NC(=O)c1ccc(CNCC(O)CO)cc1-c1ccccc1)C(=O)O (stereo partly shown) [Example 632]
% inhibition at 1 × 10^-6 M (Table 2, 1 × 10^-6 M): 43%

SMILES: CSCC[C@H](NC(=O)c1ccc(OC/C=C/c2ccccc2)cc1-c1ccccc1C)C(=O)O [Example 560, N-[4-(3-phenyl)prop-2-en-1-yloxy-2-(2-methylphenyl)benzoyl]methionine]
inhibition at 1 µM (Table 2, 1 × 10^-6 M): 91%

SMILES: CSCC[C@H](NC(=O)c1ccc(COCCCC23CC4CC(CC(C4)C2)C3)cc1-c1ccccc1C)C(=O)O [Example 599, N-[4-(3-adamant-1-ylpropoxymethyl)-2-(2-methylphenyl)benzoyl]methionine lithium salt]
inhibition at 0.01 µM [2]: 86%

SMILES: CSCC[C@H](NC(=O)c1ccc(/C=C/CC(O)c2ccc3ccccc3c2)cc1-c1ccccc1C)C(=O)O (stereo partly shown) [Example 474]
% inhibition at 1 × 10^-6 M (Table 2, 1 × 10^-6 M): 92%

SMILES: CSCC[C@H](NC(=O)c1ccc(COCc2cnc(-c3ccc(Cl)cc3)s2)cc1-c1ccccc1C)C(=O)O [Example 901, N-[4-(2-(4-chlorophenyl)thiazol-5-ylmethoxymethyl)-2-(2-methylphenyl)benzoyl]methionine lithium salt]
inhibition at 0.01 µM [2]: 84%

SMILES: COc1ccc(-c2ccc(COCc3ccc(C(=O)N[C@@H](CCSC)C(=O)O)c(-c4ccccc4C)c3)o2)cc1 [Example 446, N-[4-(5-(4-methoxyphenyl)furan-2-ylmethoxymethyl)-2-(2-methylphenyl)benzoyl]methionine lithium salt]
inhibition at 0.1 µM [1]: 91%

SMILES: CSCC[C@H](NC(=O)c1ccc(CSCc2ccccc2)cc1-c1ccccc1C)C(=O)NS(=O)(=O)c1ccc(C)cc1 [Example 586, 4-methylbenzenesulfonyl N-2-[4-(benzylthiomethyl)-2-(2-methylphenyl)benzoyl]amino-4-methylthiobutanamide]
inhibition at 0.01 µM [3]: 90%

SMILES: C=C(C)C1CC=C(COCc2ccc(C(=O)N[C@@H](CCSC)C(=O)O)c(-c3ccccc3C)c2)CC1 (stereo partly shown) [Example 521, N-[4-(4-isoprop-2-enylcyclohexen-1-yl)methoxymethyl-2-(2-methylphenyl)benzoyl]methionine lithium salt]
inhibition at 0.1 µM (read-out: % inhibition at 1 × 10^-7 M, Table 3, 1 × 10^-7 M): 94%

SMILES: CSCC[C@H](NC(=O)c1ccc(CN(Cc2ccccc2)c2ccccc2)cc1-c1ccccc1C)C(=O)O [Example 406]
% inhibition at 1 × 10^-6 M (Table 2, 1 × 10^-6 M): 95%

SMILES: CSCC[C@H](NC(=O)c1ccc(COCc2oc(-c3ccc(Cl)cc3)c(Cl)c2Cl)cc1-c1ccccc1C)C(=O)O [Example 829, N-[4-(3,4-dichloro-5-(4-chlorophenyl)furan-2-ylmethoxymethyl)-2-(2-methylphenyl)benzoyl]methionine lithium salt]
inhibition at 0.01 µM [2]: 92%

SMILES: CSCC[C@H](NC(=O)c1ccc(CN[C@H](/C=C\CC(C)C)CC2CCCCC2)cc1-c1ccccc1)C(=O)O [Example 666]
% inhibition at 1 × 10^-6 M (Table 2, 1 × 10^-6 M): 82%

SMILES: CSCC[C@H](NC(=O)c1ccc(OCCCCC2CCCCC2)cc1-c1ccccc1C)C(=O)O [Example 567, N-[4-(4-cyclohexyl)butoxy-2-(2-methylphenyl)benzoyl]methionine, lithium salt]
inhibition at 0.01 µM [3]: 69%

SMILES: CSCC[C@H](NC(=O)c1ccc(COCc2ccsc2)cc1-c1ccccc1C)C(=O)O [Example 274, [4-(3-thienylmethoxymethyl)-2-(2-methylphenyl)benzoyl]methionine Lithium salt]
inhibition at 1 µM: 94%

SMILES: CSCC[C@H](NC(=O)c1ccc(COCCCC2CCCCC2)cc1-c1ccccc1C)C(=O)O [Example 405, 4-(3-cyclohexylpropoxy)methyl-2-(2-methylphenyl)benzoylmethionine lithium salt.]
inhibition at 1 µM (Table 2, 1 × 10^-6 M): 98%

SMILES: CSCC[C@H](NC(=O)c1ccc(CCc2ccc(Oc3ccccc3)cc2)cc1-c1ccccc1C)C(=O)[O-].[Li+] [Example 462]
% inhibition at 1 × 10^-7 M (Table 3, 1 × 10^-7 M): 91%
